This note sets out measurements from US20240158446A1, “CYCLIC COMPOUND HAVING SELECTIVE INHIBITORY ACTION ON KRAS OVER HRAS AND NRAS” (CHUGAI SEIYAKU KABUSHIKI KAISHA, priority 2021, published 2024).

Test [1] addresses GDP-bound HRAS wild-type protein (Homo sapiens, UniProt P01112). The experiment in a line: Binding to HRAS by surface plasmon resonance (SPR), Single Cycle Kinetics. The note with it: SPR, GDP-bound HRAS wild-type protein vs GDP-bound KRAS wild-type protein.
The target in test [2] is GDP-bound KRAS wild-type protein (Homo sapiens, UniProt P01116). Description: Binding to KRAS by surface plasmon resonance (SPR), Single Cycle Kinetics. The settings on record: GDP-bound KRAS wild-type protein, read-out: KRAS KD. (In SPR one partner is held on a chip, and binding of the other changes the refractive index at the surface.)
In test [3] the target is GDP-bound NRAS wild-type protein (Homo sapiens, UniProt P01111). Description: Binding to NRAS by surface plasmon resonance (SPR), Single Cycle Kinetics. The settings on record: SPR, GDP-bound NRAS wild-type protein vs GDP-bound KRAS wild-type protein.
Setting [4] is: SPR Single Cycle Kinetics, 1:1 binding model.

Where two headings read alike, the source gives them in different places. *1 amine or outer side, *2 acyl side, *3 side chain or, on linkers, in order; H or OH if unused. Where a SMILES comes first, the peptide text is derived from it. Bridges are numbered along the chain shown (N, C = ends). [ ]: non-standard residue; d: D form. The star is where a group is joined. hPhe(3-Cl-4-CF3) = N[C@@H](CCc1ccc(C(F)(F)F)c(Cl)c1)C(=O)O; NPrPhe(4-CF3) = CCCN[C@@H](Cc1ccc(C(F)(F)F)cc1)C(=O)O; X10 = C=CCN([C@@H](Cc1ccc(C)cc1)C(=O)[*:2])[*:1]; NPrPhe(4-Me) = CCCN[C@@H](Cc1ccc(C)cc1)C(=O)O; NMeGly(cPent) = CN[C@H](C(=O)O)C1CCCC1; Pro(4,4-F2) = O=C(O)[C@@H]1CC(F)(F)CN1; Aze(3S-Me) = C[C@H]1CN[C@@H]1C(=O)O; NMeD = CN[C@@H](CC(=O)O)C(=O)O; NMeL = CN[C@@H](CC(C)C)C(=O)O; Morpholide = C1CN(*)CCO1; NMeA = CN[C@@H](C)C(=O)O; Ac5c = NC1(C(=O)O)CCCC1; NEtG = CCNCC(=O)O; Sar = CNCC(=O)O

Sequence of GDP-bound HRAS wild-type protein (P01112 whole entry): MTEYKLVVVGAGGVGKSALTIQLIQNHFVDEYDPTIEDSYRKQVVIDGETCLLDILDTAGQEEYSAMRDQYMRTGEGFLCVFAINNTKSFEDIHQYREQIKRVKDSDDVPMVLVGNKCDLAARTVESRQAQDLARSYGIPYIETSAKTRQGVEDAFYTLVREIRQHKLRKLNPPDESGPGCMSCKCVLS
Sequence of GDP-bound KRAS wild-type protein (P01116 whole entry): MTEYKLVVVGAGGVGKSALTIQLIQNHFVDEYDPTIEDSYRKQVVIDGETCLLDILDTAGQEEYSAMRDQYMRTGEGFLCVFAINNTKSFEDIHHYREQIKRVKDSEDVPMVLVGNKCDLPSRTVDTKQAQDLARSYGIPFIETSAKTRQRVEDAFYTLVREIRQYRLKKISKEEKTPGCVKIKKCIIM
Sequence of GDP-bound NRAS wild-type protein (P01111 whole entry): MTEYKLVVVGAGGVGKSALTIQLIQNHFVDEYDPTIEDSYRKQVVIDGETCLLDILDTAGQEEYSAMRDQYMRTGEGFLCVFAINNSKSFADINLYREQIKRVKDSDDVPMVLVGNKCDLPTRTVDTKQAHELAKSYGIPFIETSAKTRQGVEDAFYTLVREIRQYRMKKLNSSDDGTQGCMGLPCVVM

The term Kd denotes the free concentration of one partner at which half of the binding sites on the other are occupied at equilibrium, for simple one-to-one binding. Take `CCCN1C(=O)[C@@H]2[C@@H](C)CN2C(=O)[C@H](C)N(C)C(=O)[C@H]([C@@H](C)CC)NC(=O)[C@H](CC(C)C)N(C)C(=O)C[C@@H](C(=O)N2CCOCC2)N(C)C(=O)[C@H](C2CCCC2)N(C)C(=O)C2(CCCC2)NC(=O)[C@@H]2CCCN2C(=O)[C@H](CCc2ccc(C(F)(F)F)c(Cl)c2)NC(=O)CN(C)C(=O)[C@@H]1Cc1ccc(C)cc1` [PP0138] ([NMeL]I[NMeA][Aze(3S-Me)][NPrPhe(4-Me)][Sar][hPhe(3-Cl-4-CF3)]P[Ac5c][NMeGly(cPent)][NMeD]-Morpholide; lactam N-11): in test [1], the “HRAS/KRAS (ratio of KD value for HRAS to KD value for KRAS)” value was “C (A compound having a KD ratio of 0.1 or more and less than 3 is denoted as C)”. Further, in test [2] (setting [4]), the Kd stood at 0.77 nM. Moreover, the “NRAS/KRAS (ratio of KD value for NRAS to KD value for KRAS)” value in test [3] is “C (A compound having a KD ratio of 0.1 or more and less than 3 is denoted as C)”.

In the case of `CCO[C@@H]1C[C@H]2C(=O)NC3(CCC3)C(=O)N(C)[C@@H](C3CCCC3)C(=O)N(C)[C@H](C(=O)N3CCOCC3)CC(=O)N(C)[C@@H](CC)C(=O)N[C@@H]([C@@H](C)CC)C(=O)N(C)CC(=O)N(C)[C@H]3C/C=C\CCN(C3=O)[C@@H](Cc3ccc(C(F)(F)F)cc3)C(=O)N(C)CC(=O)N[C@@H](CCc3cc(F)c(C(F)(F)F)c(F)c3)C(=O)N2C1` [PP1092], the “HRAS/KRAS (ratio of KD value for HRAS to KD value for KRAS)” value in test [1] is “A (a compound having 10 or more and less than 20 is denoted as A)”. The Kd in test [2] (SPR, Single Cycle Kinetics) stood at 0.15 nM. For the same molecule, in test [3], the “NRAS/KRAS (ratio of KD value for NRAS to KD value for KRAS)” value is “A (a compound having 10 or more and less than 20 is denoted as A)”.

Regarding `CCCN1C(=O)CN(C)C(=O)CN(C)C(=O)[C@H]([C@@H](C)CC)NC(=O)[C@H](CC(C)C)N(C)C(=O)C[C@@H](C(=O)N2CCOCC2)N(C)C(=O)[C@H](C2CCCC2)N(C)C(=O)C2(CCCC2)NC(=O)[C@@H]2CC(F)(F)CN2C(=O)[C@H](CCc2ccc(C(F)(F)F)c(Cl)c2)NC(=O)CN(C)C(=O)[C@@H]1Cc1ccc(C(F)(F)F)cc1` [PP0195] ([NMeL]I[Sar][Sar][NPrPhe(4-CF3)][Sar][hPhe(3-Cl-4-CF3)][Pro(4,4-F2)][Ac5c][NMeGly(cPent)][NMeD]-Morpholide; lactam N-11), in test [1], the “HRAS/KRAS (ratio of KD value for HRAS to KD value for KRAS)” value is “C (A compound having a KD ratio of 0.1 or more and less than 3 is denoted as C)”. Moreover, the Kd in test [2] (setting [4]) turned out to be 0.091 nM. The “NRAS/KRAS (ratio of KD value for NRAS to KD value for KRAS)” value in test [3] was “B (a compound having 3 or more and less than 10 is denoted as B)”.

Take `CCO[C@@H]1C[C@H]2C(=O)NC3(CC(C)(C)C3)C(=O)N(C)[C@@H](C3CCCC3)C(=O)N(C)[C@H](C(=O)N3CCCCC3)CC(=O)N(C)[C@H]3CCCCCc4ccc(cc4)C[C@@H](C(=O)N(C)CC(=O)N[C@@H](CCc4ccc(C(F)(F)F)c(OC)c4)C(=O)N2C1)N1CC/C=C\C[C@@H](C1=O)N(C)C(=O)CN(C)C(=O)[C@H]([C@@H](C)CC)NC3=O` [PP3036, (1S,7S,11R,13S,19S,22S,26S,29S,35S,37Z)-19-cyclopentyl-11-ethoxy-7-[2-[3-methoxy-4-(trifluoromethyl)phenyl]ethyl]-3,3′,3′,18,21,25,31,34-octamethyl-29-[(1S)-1-methylpropyl]-22-(piperidine-1-carbonyl)spiro[3,6,9,15,18,21,25,28,31,34,41-undecazapentacyclo[24.15.10.2^43,46.1^35,41.0^9,13]tetrapentaconta-37,43(53),44,46(52)-tetraene-16,1′-cyclobutane]-2,5,8,14,17,20,24,27,30,33,54-undecone]: the “HRAS/KRAS (ratio of KD value for HRAS to KD value for KRAS)” value in test [1] was “B (a compound having 3 or more and less than 10 is denoted as B)”. Further, the Kd in test [2] (SPR, Single Cycle Kinetics) is 0.17 nM. Moreover, in test [3], the “NRAS/KRAS (ratio of KD value for NRAS to KD value for KRAS)” value is “A (a compound having 10 or more and less than 20 is denoted as A)”.

Regarding `CCCN1C(=O)CN(C)C(=O)CN(CC)C(=O)[C@H]([C@@H](C)CC)NC(=O)[C@H](CC(C)C)N(C)C(=O)C[C@@H](C(=O)N(C)C)NC(=O)[C@H](C2CCCC2)N(C)C(=O)C2(CCCC2)NC(=O)[C@@H]2CC(F)(F)CN2C(=O)[C@H](CCc2ccc(C(F)(F)F)c(Cl)c2)NC(=O)CN(C)C(=O)[C@@H]1Cc1ccc(C(F)(F)F)cc1` [PP0369] ([NMeL]I[NEtG][Sar][NPrPhe(4-CF3)][Sar][hPhe(3-Cl-4-CF3)][Pro(4,4-F2)][Ac5c][NMeGly(cPent)]D-NMe2; lactam N-11), the “HRAS/KRAS (ratio of KD value for HRAS to KD value for KRAS)” value in test [1] was “C (A compound having a KD ratio of 0.1 or more and less than 3 is denoted as C)”. Further, in test [2] (setting [4]), the equilibrium dissociation constant (Kd) is 1.9 nM. Besides, the “NRAS/KRAS (ratio of KD value for NRAS to KD value for KRAS)” value in test [3] was “B (a compound having 3 or more and less than 10 is denoted as B)”.

With `C=CCN1C(=O)CN(C)C(=O)CN(C)C(=O)[C@H]([C@@H](C)CC)NC(=O)[C@H](CC(C)C)N(C)C(=O)C[C@@H](C(=O)N2CCOCC2)N(C)C(=O)[C@H](C2CCCC2)N(C)C(=O)C2(CCCC2)NC(=O)[C@@H]2CCCN2C(=O)[C@H](CCc2ccc(C(F)(F)F)c(Cl)c2)NC(=O)CN(C)C(=O)[C@@H]1Cc1ccc(C)cc1` [PP0100] ([NMeL]I[Sar][Sar][X10][Sar][hPhe(3-Cl-4-CF3)]P[Ac5c][NMeGly(cPent)][NMeD]-Morpholide; lactam N-11), the “HRAS/KRAS (ratio of KD value for HRAS to KD value for KRAS)” value in test [1] is “C (A compound having a KD ratio of 0.1 or more and less than 3 is denoted as C)”. Moreover, in test [2] (setting [4]), the equilibrium dissociation constant (Kd) is 0.19 nM. Besides, the “NRAS/KRAS (ratio of KD value for NRAS to KD value for KRAS)” value in test [3] is “B (a compound having 3 or more and less than 10 is denoted as B)”.
